In paper PMC12299847, “Macroalgae-Inspired Brominated Chalcones as Cosmetic Ingredients with the Potential to Target Skin Inflammaging” (Marine Drugs, 2025):
Counter-ions that a name gives are not always drawn.

Key:
[1] = test system: iNOS protein levels in RAW264.7 macrophages; assay: Western blot analysis of iNOS expression in LPS-stimulated macrophages; type: cell-based, murine; conditions: for iNOS expression level: normalized against LPS condition
Method: To investigate the underlying mechanism of action of the most promising brominated chalcones (1 and 2), their effects on iNOS protein levels were assessed in LPS-stimulated macrophages at different time points (4, 6, and 24 h). The non-treated (NT) condition, consisting of macrophages stimulated with LPS but receiving no chalcone treatment, was used as the reference for maximal iNOS induction under inflammatory conditions and served as a positive control. The selected concentrations (7.5 μM and 15 μM) were selected based on chalcones 1 and 2 cytocompatibility (Figure 3) and efficacy in reducing NO production (Figure 4). Since NO production is a direct consequence of iNOS enzymatic activity, where the enzyme catalyzes the conversion of L-arginine to NO following inflammatory stimulation such as LPS, this provides a functional readout of iNOS expression and activity.
Here, we focused on validating iNOS expression at the protein level by western blot (Figure 6). While gene-level expression was not assessed, it is well established that LPS stimulation induces both iNOS transcription and translation in RAW 264.7 macrophages. Moreover, changes observed at the protein level are often closely associated with upstream transcriptional or translational modulation. Therefore, quantifying iNOS protein levels provides a biologically relevant measure of the chalcones’ inhibitory effects on this key inflammatory mediator.
The expression of the iNOS enzyme was analyzed by western blot. RAW264.7 macrophages were seeded at a density of 1 × 10^6 cells/well in a 6-well plate and incubated for 24 h at 37 °C in a humidified atmosphere containing 5% CO2. After incubation, cells were treated with 7.5 µM or 15 µM of the most promising chalcones (1 and 2) for 30 min, followed by the addition of LPS to have a final concentration of 100 ng/mL. Cells were then incubated for 4, 6, or 24 h. At each time point, cells were washed with PBS and lysed in RIPA buffer. The lysates were collected in Eppendorf tubes and kept on ice, with intermittent vortexing to ensure thorough lysis. Samples were centrifuged at 18,000× g for 16 min at 4 °C, and the supernatant was collected. Total protein concentration was determined using the Pierce™ BCA Protein Assay Kit (Thermo Scientific, 23225, Waltham, MA, USA), following the manufacturer’s instructions. Equal amounts of protein (25 µg) were loaded onto Bolt™ 8% Bis-Tris Mini Protein Gels (Invitrogen™, NW00087BOX, Waltham, MA, USA) and separated via electrophoresis. Proteins were then transferred onto nitrocellulose membranes (Invitrogen™, IB24002) using the iBlot® 2 dry transfer system (Invitrogen™, Waltham, MA, USA). After transfer, membranes were sectioned to separate the iNOS bands from those of the housekeeping protein GAPDH. Membranes were blocked for 1 h at room temperature in TBS-T containing 5% BSA and subsequently incubated overnight at 4 °C with primary antibodies against iNOS (Cell Signaling Technology, 16713120S, Danvers, MA, USA) or GAPDH (Abcam, ab181602, Cambridge, UK), diluted in TBS-T with 1% BSA. On the following day, membranes were washed three times with TBS-T and incubated for 1 h at room temperature with an HRP-conjugated secondary antibody (Cell Signaling Technology, 7074S) diluted in TBS-T with 1% BSA. After three additional washes, signal detection was performed using Clarity™ Western ECL Substrate (Bio-Rad, 1705061, Hercules, CA, USA), and chemiluminescent signals were acquired using the Odyssey FC imaging system (LI-COR, Lincoln, NE, USA). Densitometric analysis of iNOS bands was performed using Image Studio™ Software (version 5.2, LI-COR, Lincoln, NE, USA), with values normalized to the corresponding GAPDH bands.
Figure 6 iNOS expression level after treatment of 4, 6, and 24 h with chalcones 1 and 2 in macrophage cell line. Results are expressed as volume arbitrary unit (A). […]

[2] = test system: NO production in LPS-stimulated RAW 264.7 macrophages; assay: NO production (Griess assay) in LPS-stimulated macrophages; type: cell-based, murine; conditions: RAW 264.7, LPS 100 ng/mL; for IC50: Mus musculus, RAW264.7, 24 h, Griess
Method: The anti-inflammatory potential of chalcones 1–7 was evaluated in macrophages cultured in the presence or absence (control) of LPS, as depicted in Figure 4. Under basal conditions (unstimulated, control), macrophages produce low levels of nitrites (≈12%). […] Each chalcone was tested at concentrations previously established as non-cytotoxic in macrophages, trying to ensure that observed changes in NO levels were not due to reduced cell viability.
The production of NO was evaluated by measuring nitrite accumulation in culture supernatants using the previously described Griess assay. Cells were seeded at a concentration of 5.0 × 10^4 cells/mL in a 96-well plate (200 μL/well) and allowed to stabilize overnight at 37 °C. Afterwards, the cells were treated with different concentrations of compound solutions and pre-incubated for 1 h at 37 °C. Subsequently, an LPS in PBS solution was added to each well, achieving a final concentration of 100 ng/mL, and the plate was left to incubate for 24 h. An amount of 150 μL of the cell culture supernatant was then transferred to a fresh 96-well plate, and an equal amount of Griess reagent [comprising a 1:1 mixture of 1% (w/v) sulphanilamide in 5% (v/v) phosphoric acid and 0.1% (w/v) naphthylethylenediaminedihydrochloride] was added. Following a 30 min incubation at room temperature in the dark, the absorbance was recorded at 550 nm using a Biotek Synergy HT plate reader (Biotek, CA, USA). The nitrite concentration in the supernatants was determined by comparing the absorbance of each sample to a sodium nitrite standard curve. The results, obtained from at least three independent experiments performed in duplicate, were expressed as a percentage of NO production by cells versus chemical concentration, relative to LPS condition (100%).
Figure 4 NO production by macrophages treated with LPS (100 ng/mL) or not (control) in the presence of chalcones 1–7. Results are expressed as a percentage of NO production by cells treated with LPS (100 ng/mL). Each value represents the mean ± SEM of four independent experiments in duplicate. Statistical analysis: one ANOVA with Dunnett’s multiple comparisons test, where p< 0.05 was considered significant. *** p < 0.005, relative to the control, and ^# p < 0.05, ^## p < 0.01, ^### p < 0.0005, and ^#### p < 0.0001, relative to LPS condition.

[3] = Resazurin cell viability assay in HaCaT keratinocytes; type: cell-based, human; conditions: human, HaCaT keratinocytes, resazurin, read-out: IC50 (cell viability, cytotoxicity)
Method: (§1) To evaluate the effects of chalcones 1–7 on cell viability after 24 h, a resazurin assay was performed using two cell lines: human HaCaT keratinocytes (HaCaT, CLS 300493), representing the epidermal layer, and murine RAW 264.7 macrophages (RAW 264.7, ATCC TIB-71), which model immune cells involved in dermal inflammatory responses. For the keratinocyte cell line, all seven brominated and non-brominated chalcones were tested across a concentration range from 2.5 μM to 125 μM (Figure 2).
(§2) Human keratinocytes (HaCaT, CLS 300493, Eppelheim, Germany) were cultured in DMEM supplemented with heat-inactivated FBS, and a penicillin and streptomycin antibiotic solution. The cell culture of keratinocytes was washed with 6 mL of phosphate buffer solution with 0.05% EDTA (Sigma-Aldrich, St. Louis, MO, USA) and detached using 3 mL of 0.05% trypsin + 0.02% EDTA in PBS solution when the cells reached 70–80% confluence in cell culture flasks. DMEM was also used to cultivate the mouse macrophage cell line (RAW 264.7, ATCC TIB-71, Manassas, VA, USA) together with 10% (v/v) non-inactivated FBS, 1.5 g/L sodium bicarbonate, and 100 U/mL penicillin and 100 μg/mL streptomycin stock (antibiotic solution). The macrophage culture was mechanically detached using a cell scraper, and the final amount of DMEM media with the cells was sub-cultured in a 1:10 ratio to the cellular suspension.
(§3) The resazurin reduction assay was employed to evaluate the metabolic activity of human epidermal keratinocyte (HaCaT) and murine macrophage (RAW264.7) cell lines, as outlined in a previous study. In brief, HaCaT cells (1.0 × 10^5 cells/mL) and RAW264.7 cells (5.0 × 10^4 cells/mL) were seeded in 96-well plates (200 μL/well) and incubated overnight at 37 °C to allow for cell attachment. Following this, the cells were treated with different concentrations of the test compounds and kept at 37 °C for 24 h. After 20 h, resazurin (500 μM in sterile phosphate buffer solution, pH 7.4) was added to each well to achieve a final concentration of 50 μM, followed by an additional incubation of 4 h. Absorbance was then measured at wavelengths of 570 and 620 nm using a SpectraMax Plus 384 absorbance microplate spectrophotometer (Molecular Devices, San Jose, CA, USA). Each experiment was conducted in triplicate, with a minimum of three independent assays. The results were graphically presented as the percentage of cell viability versus chemical concentration, relative to the control.
(§4) Figure 2 Cytotoxicity of chalcones 1–7 using a resazurin reduction assay in HaCaT cells by comparison with the control. Bar graphs represent the mean ± SEM of at least three independent experiments performed in triplicate. Statistical analysis: one ANOVA with Dunnett’s multiple comparisons test, where p < 0.05 was considered significant when compared to the control condition. * p < 0.05, ** p < 0.01, and *** p < 0.0005.

HaCaT keratinocytes = assay: as above; type: cell-based, human; conditions: HaCaT, 24 h
Method: as §1, §2, §3, §4

Nrf2 = assay: KeratinoSens assay, Nrf2 luciferase reporter; type: cell-based, human; conditions: 100 µM, positive control
Method: The KeratinoSens™ assay was originally developed to assess the skin sensitization potential of Nrf2 activation, but it has also been utilized to evaluate the ability of natural compounds to induce this transcription factor [46, 47]. In this study, we assessed the capacity of chalcones 1 and 2 to activate Nrf2 after 24 and 48 h (Figure 8A–F).
Selected compounds (chalcones 1 and 2), and the positive control, DMF, were dissolved in sterile DMSO. Intermediate dilutions were prepared in culture medium, including the final concentration to be added to the 96-well plate, with a final volume of 200 µL per well. The KeratinoSens™ assay was conducted as previously described. In brief, cells were seeded at a density of 10,000 cells per well in 96-well white opaque plates (Greiner Bio-One GmbH, cat. no. 655083, Kremsmünster, Austria) and incubated for 24 h. The medium was then replaced with fresh medium containing 1% FBS and the test compounds, and cells were incubated for an additional 24 and 48 h. DMF was used as the positive control since it is a known Nrf2 activator. Cell viability was assessed in the same cells using resazurin. After 20 or 44 h of exposure to the test compounds, 50 µM of resazurin solution (in sterile PBS) was added to each well, and the plates were incubated for 4 h at 37 °C, 5% CO2 Following the resazurin incubation, the supernatant was transferred to a transparent 96-well plate, and absorbance was measured at 570 and 620 nm using a Synergy HT multi-mode microplate reader (BioTek, Bad Friedrichshall, Germany). To measure luciferase activity, cells in the white opaque 96-well plates were washed with 1× PBS. An equal volume of 1× PBS and lysis buffer (One-GLO Luciferase, cat. no. E6130, Promega, Madison, WI, USA) was added to the wells, and the plates were incubated for 20 min at room temperature. Luminescence was then measured using a FLUOstar OMEGA Microplate Reader (BMG Labtech GmbH, Ortenberg, Germany).
Figure 8 Nrf2 activation using the KeratinoSens™ assay in HaCaT cells transfected with an Nrf2 luciferase reporter construct, incubated for 24 h (A–C) or 48 h (D–F) with chalcones 1 and 2. DMF was used as a positive control. Data represent the results from four independent experiments. Non-linear regression analysis was performed using GraphPad Prism v.9.0.0 for Windows. The blue line represents the results of cell viability (% regarding the control) and the green line represents fold induction. Statistical analysis: one ANOVA with Dunnett’s multiple comparisons test, where significance includes. * p < 0.05, ** p < 0.01, *** p < 0.0005, and **** p < 0.0001.

SMILES: COc1ccc(/C=C/C(=O)c2cc(OC)c(OC)cc2Br)cc1OC [Chalcone 2]
- iNOS expression level ([1]; 7.5 µM, 4 h): 38.9%
- maximum iNOS suppression ([1]; 7.5 µM, 24 h): ~ 80%
- iNOS expression level ([1]; 7.5 µM, 24 h): 20.2%
- iNOS expression level ([1]; 15 µM, 4 h): 20.5%
- iNOS expression level ([1]; 15 µM, 6 h): 5.7%
- iNOS suppression ([1]; 15 µM, 6 h, stable up to 24 h): ~ 95%
- iNOS expression level ([1]; 15 µM, 24 h): 6.1%
- IC50 [2]: 0.77 ± 0.31 µM

SMILES: COc1ccc(/C=C/C(=O)c2ccc(OC)c(OC)c2)cc1OC [Chalcone 3]
- IC50 at 24 h [3]: 62.1 ± 1.07 µM
- reduction in cell viability (HaCaT keratinocytes; at 62.5 and 125 μM): > 50%
- IC50 [2]: 4.73 ± 0.67 µM
- concentration that reduced NO production to levels similar to the control ([2]; 24 h): 125 µM

SMILES: COc1ccc(/C=C2\CCc3cc(OC)c(OC)cc3C2=O)cc1OC [Chalcone 7]
- maximal reduction in viability (HaCaT keratinocytes; significant effects only at 62.5 μM and 125 μM): ≤ 15%
- reduction of NO production in LPS-stimulated cells ([2]; 24 h): 12%

SMILES: COC(=O)/C=C/C(=O)OC [DMF, dimethyl fumarate, reference compound]
- Nrf2 activation, fold increase (Nrf2): 8.36 fold
